Legend:
[1] = tested on: Smn protein in SMA patient fibroblast cells (GM03813); experiment: Smn protein assay in cultured cells (SMN HTRF); type: cell-based, human; settings: SMA patient fibroblast cells, 48 hours; for EC1.5x for Smn protein expression: 7-point concentration curve, SMN HTRF, concentration producing 1.5 times Smn protein vs DMSO vehicle control; for maximum fold (Fold) increase of Smn protein: 7-point concentration data, fold relative to vehicle control
How it was run: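 Fibroblasts, SMA patient; 5,000 cells/well; 7-pt curve, 3.16-fold serial dilution; 48 h, 37 °C, 5% CO2; RIPA lysis 1 h RT; anti-SMN d2 + kryptate overnight RT; HTRF 665/620 nm; fold vs DMSO; EC1.5×, max fold.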

[2] = tested on: SMN2 minigene mRNA (SMN2-A minigene) in HEK293H cells; experiment: SMN2 minigene mRNA splicing RT-qPCR assay in cultured cells; type: cell-based, human; settings: Homo sapiens, HEK293-H; concentration increasing full length SMN2 mRNA 1.5-fold relative to vehicle-treated cells; HEK293H cells with SMN2-A minigene, 24 hours, 7-point concentration data; read-out: EC1.5x for production of full length SMN2 mRNA
How it was run: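 Stable SMN2-A minigene HEK293H; cpd 7-pt 3.16-fold series, 200× in DMSO, 24 h, 37 °C, n=2. Lysates → multiplex RT-qPCR (minigene FL + GAPDH), efficiency-corrected ΔΔCt vs vehicle. EC1.5× = 1.5-fold FL mRNA gain.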

| Structure (SMILES) | EC1.5x for Smn protein expression [1] | maximum fold (Fold) increase of Smn protein [1] | EC (1.5-fold increase) [2] [µM] | melting point [°C] |
| --- | --- | --- | --- | --- |
| Cc1cn2nc(-c3cc(=O)n4cc(N5C[C@@H]6C[C@H]5CN6)ccc4n3)cc2c(C)n1 [Compound 399, 7-[(1S,4S)-2,5-diazabicyclo[2.2.1]hept-2-yl]-2-(4,6-dimethylpyrazolo[1,5-a]pyrazin-2-yl)-4H-pyrido[1,2-a]pyrimidin-4-one] | *** (an EC1.5× between >0.3 μM and ≤1 μM is indicated by three stars (***)) | **** (a fold increase between >1.5 and ≤1.65 is indicated by four stars (****)) | 0.3 to 1 | 218 to 221 |
| Cc1cn2nc(-c3cc(=O)n4cc(N5C[C@@H]6C[C@H]5CN6C)ccc4n3)cc2c(C)n1 [Compound 400, 2-(4,6-dimethylpyrazolo[1,5-a]pyrazin-2-yl)-7-[(1S,4S)-5-methyl-2,5-diazabicyclo[2.2.1]hept-2-yl]-4H-pyrido[1,2-a]pyrimidin-4-one] | *** (an EC1.5× between >0.3 μM and ≤1 μM is indicated by three stars (***)) | **** (a fold increase between >1.5 and ≤1.65 is indicated by four stars (****)) | 0.1 to 0.3 | 188 to 191 |
| CCN1C[C@@H]2C[C@H]1CN2c1ccc2nc(-c3cc4c(C)nc(C)cn4n3)cc(=O)n2c1 [Compound 401, 2-(4,6-dimethylpyrazolo[1,5-a]pyrazin-2-yl)-7-[(1S,4S)-5-ethyl-2,5-diazabicyclo[2.2.1]hept-2-yl]-4H-pyrido[1,2-a]pyrimidin-4-one] | *** (an EC1.5× between >0.3 μM and ≤1 μM is indicated by three stars (***)) | ***** (a fold increase >1.65 is indicated by five stars (*****)) | 0.1 to 0.3 | 175 to 177 |
| COc1ccc(-c2cc(=O)n3cc(C4CCNCC4)ccc3n2)cc1F [Compound 403, 2-(3-fluoro-4-methoxyphenyl)-7-(piperidin-4-yl)-4H-pyrido[1,2-a]pyrimidin-4-one] | ** (an EC1.5× between >1 μM and ≤3 μM is indicated by two stars (**)) | **** (a fold increase between >1.5 and ≤1.65 is indicated by four stars (****)) | < 0.1 | 122 to 125 |
| CCN1CCC(c2ccc3nc(-c4ccc(OC)c(OC)c4)cc(=O)n3c2)CC1 [Compound 404, 2-(3,4-dimethoxyphenyl)-7-(1-ethylpiperidin-4-yl)-4H-pyrido[1,2-a]pyrimidin-4-one] | ** (an EC1.5× between >1 μM and ≤3 μM is indicated by two stars (**)) | **** (a fold increase between >1.5 and ≤1.65 is indicated by four stars (****)) | 0.3 to 1 | 155 to 157 |
| CN[C@H]1CC[C@@H](c2ccc3nc(-c4ccc(OC)c(OC)c4)cc(=O)n3c2)CC1 [Compound 405, 2-(3,4-dimethoxyphenyl)-7-[cis-4-(methylamino)cyclohexyl]-4H-pyrido[1,2-a]pyrimidin-4-one] | *** (an EC1.5× between >0.3 μM and ≤1 μM is indicated by three stars (***)) | **** (a fold increase between >1.5 and ≤1.65 is indicated by four stars (****)) | 0.1 to 0.3 | 156 to 158 |
| COc1ccc(-c2cc(=O)n3cc(C4CCCNC4)ccc3n2)cc1OC (stereo not shown) [Compound 406, 2-(3,4-dimethoxyphenyl)-7-(piperidin-3-yl)-4H-pyrido[1,2-a]pyrimidin-4-one] | * (An EC1.5× for Smn protein expression between >3 μM and ≤10 μM is indicated by one star (*)) | *** (a fold increase between >1.35 and ≤1.5 is indicated by three stars (***)) | 0.3 to 1 | 126 to 129 |
| CCc1cc(C2=CCNCC2)cn2c(=O)cc(-c3ccc(OC)c(OC)c3)nc12 [Compound 408, 2-(3,4-dimethoxyphenyl)-9-ethyl-7-(1,2,3,6-tetrahydropyridin-4-yl)-4H-pyrido[1,2-a]pyrimidin-4-one] |  | ** (a fold increase between >1.2 and ≤1.35 is indicated by two stars (**)) | < 0.1 | 171 to 177 |
| Cc1cn2cc(-c3ccc4nc(C5CCNCC5)cc(=O)n4c3)ccc2n1 [Compound 409, 7-(2-methylimidazo[1,2-a]pyridin-6-yl)-2-(piperidin-4-yl)-4H-pyrido[1,2-a]pyrimidin-4-one] | **** (an EC1.5x≤0.3 μM is indicated by four stars (****)) | ***** (a fold increase >1.65 is indicated by five stars (*****)) | < 0.1 | 255 to 258 |
| Cc1cn2cc(-c3ccc4nc(C5CCNCC5)cc(=O)n4c3)cc(F)c2n1 [Compound 410, 7-(8-fluoro-2-methylimidazo[1,2-a]pyridin-6-yl)-2-(piperidin-4-yl)-4H-pyrido[1,2-a]pyrimidin-4-one] | **** (an EC1.5x≤0.3 μM is indicated by four stars (****)) | ***** (a fold increase >1.65 is indicated by five stars (*****)) | < 0.1 | 295 to 298 |
| Cc1cn2cc(-c3ccc4nc(C5=CCN(C)CC5)cc(=O)n4c3)cc(F)c2n1 [Compound 411, 7-(8-fluoro-2-methylimidazo[1,2-a]pyridin-6-yl)-2-(1-methyl-1,2,3,6-tetrahydropyridin-4-yl)-4H-pyrido[1,2-a]pyrimidin-4-one] |  | *** (a fold increase between >1.35 and ≤1.5 is indicated by three stars (***)) | < 0.1 | 218 to 222 |
| Cc1cn2cc(-c3cc(=O)n4cc(N5CCN(C6CC6)CC5)ccc4n3)cc(F)c2n1 [Compound 412, 7-(4-cyclopropylpiperazin-1-yl)-2-(8-fluoro-2-methylimidazo[1,2-a]pyridin-6-yl)-4H-pyrido[1,2-a]pyrimidin-4-one] | **** (an EC1.5x≤0.3 μM is indicated by four stars (****)) | ***** (a fold increase >1.65 is indicated by five stars (*****)) | < 0.1 | 254 to 258 |
| Cc1cn2cc(-c3cc(=O)n4cc(C5=CCNCC5)ncc4n3)cc2c(C)n1.Cl.Cl [Compound 413, 2-(1,3-dimethylpyrrolo[1,2-a]pyrazin-7-yl)-7-(1,2,3,6-tetrahydropyridin-4-yl)-4H-pyrazino[1,2-a]pyrimidin-4-one hydrochloride (1:2)] | **** (an EC1.5x≤0.3 μM is indicated by four stars (****)) | **** (a fold increase between >1.5 and ≤1.65 is indicated by four stars (****)) | < 0.1 | > 300 |
| CCc1cc(C2=CCN(C)CC2)cn2c(=O)cc(-c3ccc(OC)c(OC)c3)nc12 [Compound 415, 2-(3,4-dimethoxyphenyl)-9-ethyl-7-(1-methyl-1,2,3,6-tetrahydropyridin-4-yl)-4H-pyrido[1,2-a]pyrimidin-4-one] |  | *** (a fold increase between >1.35 and ≤1.5 is indicated by three stars (***)) | < 0.1 | 177 to 182 |
| COc1ccc(-c2cc(=O)n3cc(N4CCC(NC(C)C)CC4)cc(C)c3n2)cc1OC [Compound 416, 2-(3,4-dimethoxyphenyl)-9-methyl-7-[4-(propan-2-ylamino)piperidin-1-yl]-4H-pyrido[1,2-a]pyrimidin-4-one] | ** (an EC1.5× between >1 μM and ≤3 μM is indicated by two stars (**)) | *** (a fold increase between >1.35 and ≤1.5 is indicated by three stars (***)) | < 0.1 | 178 to 183 |
| COc1ccc(-c2cc(=O)n3cc(N4CCN5CCC[C@H]5C4)cc(C)c3n2)cc1OC [Compound 417, 2-(3,4-dimethoxyphenyl)-7-[(8aS)-hexahydropyrrolo[1,2-a]pyrazin-2(1H)-yl]-9-methyl-4H-pyrido[1,2-a]pyrimidin-4-one] | ** (an EC1.5× between >1 μM and ≤3 μM is indicated by two stars (**)) | **** (a fold increase between >1.5 and ≤1.65 is indicated by four stars (****)) | 0.1 to 0.3 | 183 to 189 |
| CCc1cc(C2=CCN(CC)CC2)cn2c(=O)cc(-c3ccc(OC)c(OC)c3)nc12 [Compound 418, 2-(3,4-dimethoxyphenyl)-9-ethyl-7-(1-ethyl-1,2,3,6-tetrahydropyridin-4-yl)-4H-pyrido[1,2-a]pyrimidin-4-one] |  | *** (a fold increase between >1.35 and ≤1.5 is indicated by three stars (***)) | < 0.1 | 148 to 153 |
| COc1ccc(-c2cc(=O)n3cc(N4CCC(N5CCOCC5)CC4)cc(C)c3n2)cc1OC [Compound 419, 2-(3,4-dimethoxyphenyl)-9-methyl-7-[4-(morpholin-4-yl)piperidin-1-yl]-4H-pyrido[1,2-a]pyrimidin-4-one] |  | ** (a fold increase between >1.2 and ≤1.35 is indicated by two stars (**)) | 0.1 to 0.3 | 219 to 224 |

Source: patent US11753407B2, “Compounds for treating spinal muscular atrophy” (PTC Therapeutics, Inc., priority 2012, dated 2023)
